Data: patent US12233128B2, “Degraders that target ALK and therapeutic uses thereof” (DANA-FARBER CANCER INSTITUTE, INC., priority 2018, dated 2025)

Key:
Type in all cases: cell-based
FAK (PTK2) = biological target: T1, FAK (PTK2) (Homo sapiens, UniProt Q05397); assay: Western blot, off target degradation of PTK2 in H3122 cells
T1 construct: endogenous in cells; host or cells: H3122
Protocol: (§1) Blotting: Cells were washed with PBS before being lysed with Cell Lysis Buffer (Cell Signaling Technology®) supplemented with protease and phosphatase inhibitor cocktails (Roche™) at 4° C. for 15 minutes. The cell lysate was vortexed every 5 minutes over a 30-minute period before being centrifuged at 14,000×g for 20 min at 4° C. Protein in cell lysate was quantified by BCA assay (Pierce™). Primary antibodies used in this study include ALK (Cell Signaling Technology®, D5F3), Aurora A (Cell Signaling Technology®, 1F8), FAK (PTK2) (Cell Signaling Technology®, #3285), and GAPDH (Cell Signaling Technology®, 14C10). Blot quantification was performed using Image Studio™ 4.0 software, normalizing to loading control (GAPDH).

H3122 cells = assay: CellTiter-Glo cell viability, anti-proliferative activity in H3122 cells; conditions: 72 hours, FIG. 1A
Protocol: (§2) CellTiter-Glo®: Cell viability was evaluated using the CellTiter-Glo® Luminescent Cell Viability Assay (Promega™) following the manufacturer's standards. 12-point dose titrations were tested in triplicate from 10000 nM to 0.056 nM over 72 hours. Anti-proliferative best fit EC50 values with 95% CI are shown as calculated by Graphpad Prism™ 7 software.

ALK = biological target: T2, ALK (Homo sapiens, UniProt Q9UM73); assay: Western blot, degradation of ALK in H3122 cells; conditions: for degradation of ALK: 16-hour treatment, 0.01-1 μM
T2 construct: EML4 N-terminal fusion partner (human entry Q9HC35); endogenous in cells; host or cells: H3122; the other entry of the earlier key: EML4 (Q9HC35, Echinoderm microtubule-associated protein-like 4)
Protocol: as §1

Aurora A = biological target: T3, Aurora A (Homo sapiens, UniProt O14965); assay: Western blot, off target degradation of Aurora A in H3122 cells; conditions: 16-hour treatment, 0.01-1 μM
T3 construct: ALK and aurora A degradation in H3122 cells; endogenous in cells; host or cells: H3122
T3 sequence (O14965 1-403): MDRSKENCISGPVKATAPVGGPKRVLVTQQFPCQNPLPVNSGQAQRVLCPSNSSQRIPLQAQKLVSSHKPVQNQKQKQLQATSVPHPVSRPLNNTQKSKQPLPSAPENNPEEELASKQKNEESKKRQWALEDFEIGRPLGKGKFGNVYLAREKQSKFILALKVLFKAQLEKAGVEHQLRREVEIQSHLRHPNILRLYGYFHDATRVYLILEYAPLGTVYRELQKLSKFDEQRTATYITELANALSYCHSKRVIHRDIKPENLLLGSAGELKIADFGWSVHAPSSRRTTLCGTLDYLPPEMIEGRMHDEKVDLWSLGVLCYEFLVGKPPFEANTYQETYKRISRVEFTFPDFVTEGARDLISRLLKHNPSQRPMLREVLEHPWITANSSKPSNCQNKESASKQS
Protocol: as §1

[1] = tested on: EML4-ALK with secondary mutations L1196M, C1156Y, or G1202R; assay: CellTiter-Glo cell viability, ALK-positive Ba/F3 cells with EML4-ALK secondary mutations; conditions: 72 hours, FIG. 1A
Protocol: as §2

[2] = tested on: EML4-ALK expressing cell lines; assay: CellTiter-Glo cell viability, EML4-ALK expressing cell lines; conditions: 72 hours, FIG. 2A / 3A
Protocol: as §2
The experimental protocol was as in Example 15.

T2 sequence (Q9UM73 with tags, fused parts or gaps): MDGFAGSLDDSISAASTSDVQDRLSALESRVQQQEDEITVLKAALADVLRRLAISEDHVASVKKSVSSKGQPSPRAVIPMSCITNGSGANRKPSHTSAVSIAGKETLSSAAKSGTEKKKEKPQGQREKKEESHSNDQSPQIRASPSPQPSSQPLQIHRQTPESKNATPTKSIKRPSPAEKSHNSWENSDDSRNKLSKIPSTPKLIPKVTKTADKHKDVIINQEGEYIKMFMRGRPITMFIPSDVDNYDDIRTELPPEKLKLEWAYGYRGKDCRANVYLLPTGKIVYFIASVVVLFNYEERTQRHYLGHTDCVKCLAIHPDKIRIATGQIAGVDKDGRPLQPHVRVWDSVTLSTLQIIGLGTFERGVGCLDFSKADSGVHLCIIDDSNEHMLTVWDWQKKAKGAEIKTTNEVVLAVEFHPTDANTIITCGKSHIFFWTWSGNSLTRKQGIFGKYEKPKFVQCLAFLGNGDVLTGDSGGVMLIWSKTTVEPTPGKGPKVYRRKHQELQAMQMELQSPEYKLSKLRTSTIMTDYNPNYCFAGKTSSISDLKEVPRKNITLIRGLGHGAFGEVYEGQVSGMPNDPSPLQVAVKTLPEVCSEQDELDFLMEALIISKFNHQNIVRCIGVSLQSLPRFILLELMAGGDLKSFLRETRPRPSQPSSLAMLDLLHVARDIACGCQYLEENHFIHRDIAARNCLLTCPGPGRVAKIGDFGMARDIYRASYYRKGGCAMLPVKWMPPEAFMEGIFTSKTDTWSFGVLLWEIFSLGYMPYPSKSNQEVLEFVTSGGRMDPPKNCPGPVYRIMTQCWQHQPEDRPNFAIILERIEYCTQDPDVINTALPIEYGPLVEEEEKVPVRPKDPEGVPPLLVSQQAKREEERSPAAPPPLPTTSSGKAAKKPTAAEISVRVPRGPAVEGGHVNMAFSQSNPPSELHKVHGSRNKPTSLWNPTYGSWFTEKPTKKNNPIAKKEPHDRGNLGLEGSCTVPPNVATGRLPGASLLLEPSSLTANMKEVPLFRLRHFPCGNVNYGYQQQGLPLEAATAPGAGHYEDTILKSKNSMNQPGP
T1 sequence (Q05397 whole entry): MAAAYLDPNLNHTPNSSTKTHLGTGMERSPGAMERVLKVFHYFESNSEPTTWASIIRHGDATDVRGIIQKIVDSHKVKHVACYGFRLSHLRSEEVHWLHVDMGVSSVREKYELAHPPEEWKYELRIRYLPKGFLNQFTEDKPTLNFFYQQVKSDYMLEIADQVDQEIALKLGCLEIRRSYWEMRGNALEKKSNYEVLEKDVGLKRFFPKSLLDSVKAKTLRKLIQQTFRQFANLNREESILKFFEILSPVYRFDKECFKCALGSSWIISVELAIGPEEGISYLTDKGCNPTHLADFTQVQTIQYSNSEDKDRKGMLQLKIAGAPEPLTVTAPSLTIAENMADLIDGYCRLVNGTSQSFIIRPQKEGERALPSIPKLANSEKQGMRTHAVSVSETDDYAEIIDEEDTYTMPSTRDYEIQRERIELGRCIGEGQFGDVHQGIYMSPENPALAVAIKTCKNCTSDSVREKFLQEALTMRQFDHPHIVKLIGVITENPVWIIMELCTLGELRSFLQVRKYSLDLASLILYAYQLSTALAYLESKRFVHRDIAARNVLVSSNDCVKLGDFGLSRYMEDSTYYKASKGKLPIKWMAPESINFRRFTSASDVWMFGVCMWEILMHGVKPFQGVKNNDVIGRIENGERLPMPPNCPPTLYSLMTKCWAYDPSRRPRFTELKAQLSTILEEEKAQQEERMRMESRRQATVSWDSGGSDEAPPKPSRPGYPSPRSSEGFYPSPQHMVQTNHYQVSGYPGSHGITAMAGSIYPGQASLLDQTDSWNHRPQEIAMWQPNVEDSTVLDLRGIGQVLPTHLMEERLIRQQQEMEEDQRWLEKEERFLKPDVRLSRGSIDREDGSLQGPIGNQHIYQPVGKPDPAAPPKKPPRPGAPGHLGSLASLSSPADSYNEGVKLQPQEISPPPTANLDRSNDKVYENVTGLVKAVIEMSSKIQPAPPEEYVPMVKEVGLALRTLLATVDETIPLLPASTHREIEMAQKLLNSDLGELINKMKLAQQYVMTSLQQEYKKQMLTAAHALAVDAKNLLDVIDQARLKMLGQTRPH

**Q.** CCc1cc2c(cc1N1CCC(N3CCN(C(=O)CCOCCOCCOCCOCCNc4cccc5c4C(=O)N(C4CCC(=O)NC4=O)C5=O)CC3)CC1)C(C)(C)c1[nH]c3cc(C#N)ccc3c1C2=O (stereo not shown) [Compound 1, 8-(4-(4-(1-((2-(2,6-dioxopiperidin-3-yl)-1,3-dioxoisoindolin-4-yl)amino)-3,6,9,12-tetraoxapentadecan-15-oyl)piperazin-1-yl)piperidin-1-yl)-9-ethyl-6,6-dimethyl-11-oxo-6,11-dihydro-5H-benzo[b]carbazole-3-carbonitrile] was tested. Which “off target degradation of PTK2” value (FAK (PTK2); 16-hour treatment, 0.01-1 μM) did it give?
**A.** Its value is “very low”.

**Q.** And the “anti-proliferative activity in H3122 cells” value (H3122 cells)?
**A.** Its value is “comparable to compound 12”.

**Q.** And the “degradation of ALK” value (ALK)?
**A.** The value was “ability to degrade ALK in a dose dependent manner”.

**Q.** What about the “off target degradation of Aurora A” value (Aurora A) of the same compound?
**A.** The value was “Off target degradation of Aurora A was also seen”.

**Q.** What about the “activity against EML4-ALK with secondary mutations L1196M, C1156Y, or G1202R” value [1] of the same compound?
**A.** Its value is “comparable to the parental inhibitor alectinib”.

**Q.** How did the “off target degradation of PTK2” value (FAK (PTK2); 16-hour treatment, 0.01-1 μM) turn out when CCc1cc2c(cc1N1CCC(N3CCN(C(=O)CCOCCOCCNc4cccc5c4C(=O)N(C4CCC(=O)NC4=O)C5=O)CC3)CC1)C(C)(C)c1[nH]c3cc(C#N)ccc3c1C2=O (stereo not shown) [Compound 2, 8-(4-(4-(3-(2-(2-((2-(2,6-dioxopiperidin-3-yl)-1,3-dioxoisoindolin-4-yl)amino)ethoxy)ethoxy)propanol)piperazin-1-yl)piperidin-1-yl)-9-ethyl-6,6-dimethyl-11-oxo-6,11-dihydro-5H-benzo[b]carbazole-3-carbonitrile] was run?
**A.** Its value is “very low”.

**Q.** What about the “anti-proliferative activity in H3122 cells” value (H3122 cells) of the same compound?
**A.** Its value is “comparable to compound 12”.

**Q.** What about the “degradation of ALK” value (ALK) of the same compound?
**A.** The value was “ability to degrade ALK in a dose dependent manner”.

**Q.** And the “off target degradation of Aurora A” value (Aurora A)?
**A.** The value was “Off target degradation of Aurora A was also seen”.

**Q.** What about the “activity against EML4-ALK with secondary mutations L1196M, C1156Y, or G1202R” value [1] of the same compound?
**A.** The value was “comparable to the parental inhibitor alectinib”.

**Q.** For CCc1cc2c(cc1-c1cnn(CC(=O)NCCOCCOCCNc3cccc4c3C(=O)N(C3CCC(=O)NC3=O)C4=O)c1)C(C)(C)c1[nH]c3cc(C#N)ccc3c1C2=O (stereo not shown) [Compound 4, 2-(4-(3-cyano-9-ethyl-6,6-dimethyl-11-oxo-6,11-dihydro-5H-benzo[b]carbazol-8-yl)-1H-pyrazol-1-yl)-N-(2-(2-(2-((2-(2,6-dioxopiperidin-3-yl)-1,3-dioxoisoindolin-4-yl)amino)ethoxy)ethoxy)ethyl)acetamide], which “degradation of ALK” value (ALK) is on record?
**A.** Its value is “did not degrade ALK to a significant extent”.

**Q.** What does the source list for CCc1cc2c(cc1-c1cnn(CC(=O)NCCOCCOCCOCCOCCOCCOCCNc3cccc4c3C(=O)N(C3CCC(=O)NC3=O)C4=O)c1)C(C)(C)c1[nH]c3cc(C#N)ccc3c1C2=O (stereo not shown) [Compound 5, 2-(4-(3-cyano-9-ethyl-6,6-dimethyl-11-oxo-6,11-dihydro-5H-benzo[b]carbazol-8-yl)-1H-pyrazol-1-yl)-N-(20-((2-(2,6-dioxopiperidin-3-yl)-1,3-dioxoisoindolin-4-yl)amino)-3,6,9,12,15,18-hexaoxaicosyl)acetamide]?
**A.** anti-proliferative activity in EML4-ALK expressing cell lines [2]: slightly better activity than the other members of this group; degradation of ALK (ALK): significant degradation of ALK

**Q.** Which “degradation of ALK” value (ALK) does the source give for CCc1cc2c(cc1-c1cnn(CC(=O)NCCOCCOCCOCCOCCNc3cccc4c3C(=O)N(C3CCC(=O)NC3=O)C4=O)c1)C(C)(C)c1[nH]c3cc(C#N)ccc3c1C2=O (stereo not shown) [Compound 6, 2-(4-(3-cyano-9-ethyl-6,6-dimethyl-11-oxo-6,11-dihydro-5H-benzo[b]carbazol-8-yl)-1H-pyrazol-1-yl)-N-(14-((2-(2,6-dioxopiperidin-3-yl)-1,3-dioxoisoindolin-4-yl)amino)-3,6,9,12-tetraoxatetradecyl)acetamide] here?
**A.** Its value is “did not degrade ALK to a significant extent”.

**Q.** CCc1cc2c(cc1-c1cnn(CC(=O)N(C)CCOCCOCCOCCNc3cccc4c3C(=O)N(C3CCC(=O)NC3=O)C4=O)c1)C(C)(C)c1[nH]c3cc(C#N)ccc3c1C2=O (stereo not shown) [Compound 8, 2-(4-(3-cyano-9-ethyl-6,6-dimethyl-11-oxo-6,11-dihydro-5H-benzo[b]carbazol-8-yl)-1H-pyrazol-1-yl)-N-(2-(2-(2-(2-((2-(2,6-dioxopiperidin-3-yl)-1,3-dioxoisoindolin-4-yl)amino)ethoxy)ethoxy)ethoxy)ethyl)-N-methylacetamide] was tested. Which “degradation of PTK2” value (FAK (PTK2); 16-hour treatment, 1 μM) did it give?
**A.** The value was “slight degradation of PTK2”.

**Q.** And the “off target degradation of Aurora A” value (Aurora A)?
**A.** The value was “off target degradation of aurora A was still seen at higher doses”.

**Q.** With Cc1cc(Nc2ncc(Cl)c(Nc3ccccc3S(=O)(=O)C(C)C)n2)c(OC(C)C)cc1C1CCN(CCOCCOCCNC(=O)CNc2cccc3c2C(=O)N(C2CCC(=O)NC2=O)C3=O)CC1 (stereo not shown) [Compound 12, N-(2-(2-(2-(4-(4-((5-Chloro-4-((2-(isopropylsulfonyl)phenyl)-amino)pyrimidin-2-yl)amino)-5-isopropoxy-2-methylphenyl)-piperidin-1yl)ethoxy)ethoxy)ethyl)-2-((2-(2,6-dioxopiperidin-3-yl)-1,3-dioxoisoindolin-4-yl)amino)acetamide] as the compound, how does the “off target degradation of PTK2” value (FAK (PTK2); time course, 100 nM) read?
**A.** Its value is “off target degradation activity against PTK2 that was seen”.

**Q.** What about the “time at which ALK degradation is seen” value (ALK; time course, 100 nM) of the same compound?
**A.** The value was “around 4 hours”.

**Q.** And the “time of maximum ALK degradation” value (ALK; time course, 100 nM)?
**A.** The value was “around 8 hours”.
